Results reported in patent publication US20240383852A1, “ANTI-VIRAL COMPOUNDS” (INFEX Therapeutics Limited, priority 2021, published 2024).
pIC50: −log10 of the molar value. Counter-ions that a name gives are not always drawn.

Tests used:
SARS-CoV-2 PLpro = target: T1, SARS-CoV-2 PLpro (Severe acute respiratory syndrome coronavirus 2, UniProt P0DTD1); assay: biochemical; details: 60 nM papain-like protease, 50 μM Z-RLRGG-AMC, pH 7.5, 37° C.; read-out: SARS-CoV-2 PLpro IC50
T1 construct: containing 60 nM papain-like protease

[1] = tested on: human Hep G2 cells (ATCC HB-8065); assay: Cytotoxicity in Hep G2 cells (CellTiter-Glo); format: cell-based; details: Hep G2 cells, 100 μM test article, 24-hour exposure

Compound | pIC50 (SARS-CoV-2 PLpro) | % Cell Viability [1]
COc1ccc([C@@H](C)NC(=O)c2cc(N3CCN(C)CC3)ccc2C)cc1-c1nnc(C)s1 [Example 236, N-[(1R)-1-[4-Methoxy-3-(5-methyl-1,3,4-thiadiazol-2-yl)phenyl]ethyl]-2-methyl-5-(4-methylpiperazin-1-yl)benzamide] | > 5.70 | 79.5%
C[C@@H](NC(=O)c1cc(N2CCNCC2)ccc1Cl)c1cccc2ccccc12 [Example 134, 2-Chloro-N-[(1R)-1-(1-naphthyl)ethyl]-5-piperazin-1-yl-benzamide] | > 5.70 | 0.8%
COc1ccc([C@@H](C)NC(=O)c2cc(N3CC4(CNC4)C3)ccc2C)cc1-c1cnn(C)c1 [Example 271, 5-(2,6-Diazaspiro[3.3]heptan-2-yl)-N-[(1R)-1-[4-methoxy-3-(1-methylpyrazol-4-yl)phenyl]ethyl]-2-methyl-benzamide] | > 5.30 | 95.2%
COc1cc(-c2cnn(C)c2)cc([C@@H](C)NC(=O)c2cc(N3CC4CNCC4C3)ccc2C)c1 (stereo partly drawn) [Example 262, 5-(2,3,3a,4,6,6a-Hexahydro-1H-pyrrolo[3,4-c]pyrrol-5-yl)-N-[(1R)-1-[3-methoxy-5-(1-methylpyrazol-4-yl)phenyl]ethyl]-2-methyl-benzamide] | > 5.70 | 42.4%
Cc1ccc(N2C[C@H]3C[C@@H]2CN3C)cc1C(=O)N[C@H](C)c1cccc2c1OCO2 [Example 122, N-[(1R)-1-(1,3-benzodioxol-4-yl)ethyl]-2-methyl-5-[(1R,4R)-5-methyl-2,5-diazabicyclo[2.2.1]heptan-2-yl]benzamide] | > 5.30 | 95.4%
CNC(=O)c1cccc([C@@H](C)NC(=O)c2cc(N3CCN(C)CC3)ccc2C)c1 [Example 312, 2-Methyl-N-[(1R)-1-[3-(methylcarbamoyl)phenyl]ethyl]-5-(4-methylpiperazin-1-yl)benzamide] | > 5.00 | 78.3%
COc1c(-c2cnn(C)c2)cccc1[C@@H](C)NC(=O)c1cc(N2CCN(C)CC2)ccc1C [Example 226, N-[(1R)-1-[2-Methoxy-3-(1-methylpyrazol-4-yl)phenyl]ethyl]-2-methyl-5-(4-methylpiperazin-1-yl)benzamide] | > 5.00 | 91.4%
COc1ccc([C@@H](C)NC(=O)c2cc(N3CCN(C)CC3)ccc2C)cc1C1CCN(CCC(=O)O)CC1 [Example 238, 3-[4-[2-Methoxy-5-[(1R)-1-[[2-methyl-5-(4-methylpiperazin-1-yl)benzoyl]amino]ethyl]phenyl]-1-piperidyl]propanoic Acid] | > 5.00 | 119.7%
Cc1ccc(N2CCN(C)CC2)cc1C(=O)N[C@H](C)c1cccc(-c2cccc(C(=O)N3CCOCC3)c2)c1 [Example 92, 2-Methyl-5-(4-methylpiperazin-1-yl)-N-[(1R)-1-[3-[3-(morpholine-4-carbonyl)phenyl]phenyl]ethyl]benzamide] | > 5.70 | 76.9%
Cc1ccc(N2CCN(C)CC2)cc1C(=O)N[C@H](C)c1cccc(-c2csc(C(=O)N(C)C)c2)c1 [Example 101, N,N-Dimethyl-4-[3-[(1R)-1-[[2-methyl-5-(4-methylpiperazin-1-yl)benzoyl]amino]ethyl]phenyl]thiophene-2-carboxamide] | > 5.70 | 88.1%
Cc1ccc(N2CCN(C)CC2)cc1C(=O)N[C@H](C)c1cccc(-c2cccc(C(=O)N(C)CCN(C)C)c2)c1 [Example 86, N-[(1R)-1-[3-[3-[2-(Dimethylamino)ethyl-methyl-carbamoyl]phenyl]phenyl]ethyl]-2-methyl-5-(4-methylpiperazin-1-yl)benzamide] | > 5.70 | 72.1%
Cc1ccc(N2CCN(C)CC2)cc1C(=O)N[C@H](C)c1cc(F)cc(Br)c1 [Example 197, N-[(1R)-1-(3-Bromo-5-fluoro-phenyl)ethyl]-2-methyl-5-(4-methylpiperazin-1-yl)benzamide] | > 5.70 | 44.7%
COc1ccc([C@@H](C)NC(=O)c2cc(N3CCN(C)CC3)ccc2C)cc1OCCO [Example 294, N-[(1R)-1-[3-(2-Hydroxyethoxy)-4-methoxy-phenyl]ethyl]-2-methyl-5-(4-methylpiperazin-1-yl)benzamide] | > 5.30 | 120.9%
Cc1ccc(N2CCN(C)CC2)cc1C(=O)N[C@H](C)c1ccc(O)c(-c2cnn(C)c2)c1 [Example 276, N-[(1R)-1-[4-Hydroxy-3-(1-methylpyrazol-4-yl)phenyl]ethyl]-2-methyl-5-(4-methylpiperazin-1-yl)benzamide] | > 5.70 | 81.6%
Cc1ccc(N2CCN(C)CC2)cc1C(=O)N[C@H](C)c1cccc(C#CCO)c1 [Example 315, N-[(1R)-1-[3-(3-Hydroxyprop-1-ynyl)phenyl]ethyl]-2-methyl-5-(4-methylpiperazin-1-yl)benzamide] | > 5.30 | 122.7%
COc1ccc([C@@H](C)NC(=O)c2cc(N3CCN(C)CC3)ccc2C)cc1F [Example 185, N-[(1R)-1-(3-Fluoro-4-methoxy-phenyl)ethyl]-2-methyl-5-(4-methylpiperazin-1-yl)benzamide] | > 5.00 | 5.6%

Compound | pIC50 (SARS-CoV-2 PLpro) | % Cell Viability [1]
COc1ccc([C@@H](C)NC(=O)c2cc(N3CC4(CCNCC4)C3)ccc2C)cc1-c1cnn(C)c1 [Example 258, 5-(2,7-Diazaspiro[3.5]nonan-2-yl)-N-[(1R)-1-[4-methoxy-3-(1-methylpyrazol-4-yl)phenyl]ethyl]-2-methyl-benzamide] | > 5.70 | 81.8%
Cc1ccc(N2CCN(C)CC2)cc1C(=O)N[C@H](C)c1cccc(-c2cccc(C(N)=O)c2)c1 [Example 43, N-[(1R)-1-[3-(3-Carbamoylphenyl)phenyl]ethyl]-2-methyl-5-(4-methylpiperazin-1-yl)benzamide] | > 5.70 | 71.3%
Cc1ccc(N2CCN(C)CC2)cc1C(=O)N[C@H](C)c1cccc(-c2cnc(N)nc2)c1 [Example 63, N-[(1R)-1-[3-(2-Aminopyrimidin-5-yl)phenyl]ethyl]-2-methyl-5-(4-methylpiperazin-1-yl)benzamide] | > 5.70 | 75.6%
Cc1ccc(N2CCN(C)CC2)cc1C(=O)N[C@H](C)c1cccc(-c2nccs2)c1 [Example 65, 2-Methyl-5-(4-methylpiperazin-1-yl)-N-[(1R)-1-(3-thiazol-2-ylphenyl)ethyl]benzamide] | > 5.70 | 77.6%
Cc1ccc(N2CCN(C)CC2)cc1C(=O)N[C@H](C)c1ccc(F)c(-c2ccccc2)c1 [Example 218, N-[(1R)-1-(4-Fluoro-3-phenyl-phenyl)ethyl]-2-methyl-5-(4-methylpiperazin-1-yl)benzamide] | > 5.70 | 1.5%
Cc1ccc(N2CC3(CN(CCO)C3)C2)cc1C(=O)N[C@H](C)c1cccc2ccccc12 [Example 20, 5-[6-(2-Hydroxyethyl)-2,6-diazaspiro[3.3]heptan-2-yl]-2-methyl-N-[(1R)-1-(1-naphthyl)ethyl]benzamide] | > 5.30 | 94.3%
COc1cc(-c2cn(C)nc2C)cc([C@@H](C)NC(=O)c2cc(C3CCN(C)CC3)ccc2C)c1 [Example 301, N-[(1R)-1-[3-(1,3-Dimethylpyrazol-4-yl)-5-methoxy-phenyl]ethyl]-2-methyl-5-(1-methyl-4-piperidyl)benzamide] | > 5.70 | 77.5%
Cc1ccc(N2CCN(C)CC2)cc1C(=O)N[C@H](C)c1cccc2c1OCO2 [Example 33, N-[(1R)-1-(1,3-Benzodioxol-4-yl)ethyl]-2-methyl-5-(4-methylpiperazin-1-yl)benzamide hydrochloride salt] | > 5.00 | 95.5%
CC(=O)N1CCN(c2ccc(C)c(C(=O)N[C@H](C)c3cccc4ccccc34)c2)CC1 [Example 109, 5-(4-Acetylpiperazin-1-yl)-2-methyl-N-[(1R)-1-(1-naphthyl)ethyl]benzamide] | > 5.00 | 72.9%
Cc1ccc(N2CCN(C)CC2)cc1C(=O)N[C@H](C)c1cccc(N2CCNCC2)c1 [Example 105, 2-Methyl-5-(4-methylpiperazin-1-yl)-N-[(1R)-1-(3-piperazin-1-ylphenyl)ethyl]benzamide] | > 5.30 | 113.3%
COc1cccc([C@@H](C)NC(=O)c2cc(N3CCN(C)CC3)ccc2C)c1 [Example 29, N-[(1R)-1-(3-Methoxyphenyl)ethyl]-2-methyl-5-(4-methylpiperazin-1-yl)benzamide] | > 5.30 | 100%
CNC(=O)c1cccc(-c2cccc([C@@H](C)NC(=O)c3cc(N4CCN(C)CC4)ccc3C)c2)c1 [Example 46, 2-Methyl-N-[(1R)-1-[3-[3-(methylcarbamoyl)phenyl]phenyl]ethyl]-5-(4-methylpiperazin-1-yl)benzamide] | > 5.70 | 86.9%
Cc1ccc(N2CCN(C)CC2)c(C)c1C(=O)N[C@H](C)c1cccc2ccccc12 [Example 124, 2,6-Dimethyl-3-(4-methylpiperazin-1-yl)-N-[(1R)-1-(1-naphthyl)ethyl]benzamide] | > 5.70 | 37.4%
Cc1ccc(N2CCN(C)CC2)cc1C(=O)N[C@H](C)c1cccc(-c2ccc(N3CCNCC3)cc2)c1 [Example 73, 2-Methyl-5-(4-methylpiperazin-1-yl)-N-[(1R)-1-[3-(4-piperazin-1-ylphenyl)phenyl]ethyl]benzamide dihydrochloride salt] | > 5.70 | 0.6%
COc1ccc([C@@H](C)NC(=O)c2cc(N3CCN(C)CC3)ccc2C)cc1OCCN [Example 295, N-[(1R)-1-[3-(2-Aminoethoxy)-4-methoxy-phenyl]ethyl]-2-methyl-5-(4-methylpiperazin-1-yl)benzamide Dihydrochloride Salt] | > 5.00 | 107.9%
